Results as given in patent US9221873B1, “Short-chain peptide capable of controlling spermatozoa fertilization performance” (NATIONAL TAIWAN UNIVERSITY, priority 2014, dated 2015).

How the values were obtained:
mouse spermatozoa = experiment: Measuring the [Ca2+]i in spermatozoa (Fluo-4 AM fluorescence); format: cell-based; conditions: FIG. 1; for [Ca2+]i increases by (change in fluorescent intensity, (F'-F0)/F0): plateau phase 27-30 minutes
Description: Spermatozoa are prepared for measuring changes in the intracellular concentration of free calcium ions ([Ca^2]i). Modified HEPES medium (120 mM of NaCl, 2 mM of KCl, 1.2 mM of MgSO4.7H2O, 0.36 mM of NaH2PO4, 15 mM of NaHCO3, 10 mM of HEPES, 5.6 mM of glucose, 1.1 mM of sodium pyruvate, 18.5 mM of sucrose, 100 IU/ml of penicillin, and 100 μg/ml of streptomycin), spermatozoa culture medium, is pre-incubated in incubator with 5% CO2 at 37° C. for 24 hours before using to adjust the medium pH ranges between 7.3 and 7.4. The cauda epididymis is cut into several pieces, incubated in the medium at 37° C. for 20 minutes, put on 1 ml of 75% (v/v) Percoll solution, and centrifuged at 300×g for 30 minutes to isolate higher motility spermatozoa for [Ca^2+]i measurement experiment.
Changes in the [Ca^2+]i in uncapacitated spermatozoa are measured. Spermatozoa (1×10^8 cells per milliliter) is incubated in modified HEPES medium, containing 15 μM of Fluo-4 AM, in the darkness at 37° C. for 45 minutes. Fluo-4 AM is a fluorescent Ca^2+ indicator capable of penetrating cell membranes. Then, the spermatozoa are washed thrice by 100×g centrifugation at room temperature for 5 minutes to remove the residual dye. The sperm cell pellet is suspended in a modified HEPES medium, containing 1.8 mM of CaCl2, and the cell concentration is adjusted to 5×10^6 cells per milliliter. […] The changes of fluorescent intensity are measured with the Synergy H1 Hybrid Multi-Mode Microplate Reader (Bio-Tek, Winooski, Vt., USA) at 37° C. via an excitation wavelength of 485 nm and an emission wavelength of 520 nm. […] Changes in [Ca^2+]i are calculated with the equation (F′−F0)/F0 (%), wherein F′ denotes the fluorescent intensity measured at different time points during the experiment, and F0 denotes the average of fluorescent intensity measured 0 to 5 minutes before adding kisspeptin-10. Last but not least, the average change in the fluorescent intensity during the plateau phase (27˜30 minutes) of [Ca^2+]i is calculated.

spermatozoa = experiment: IVF test (in vitro fertilization, success fertilization rate); format: cell-based, mouse; conditions: spermatozoa incubated with 50 μM during capacitation, 2 hours, 37° C.; control group larger than 80%; binds KISS1R; FIG. 2
Description: In the in vitro fertilization experiment, spermatozoa isolated from cauda epididymis are incubated in HTF (human tubal fluid) medium (Merck Millipore) at 37° C. for 20 minutes and then diluted the cell concentration to 1×10^6 spermatozoa per milliliter.
The uncapacitated spermatozoa is incubated in HTF medium and then treated with peptide 234 during capacitation step, such that kisspeptin signal effects on final fertilization step is evaluated. The 0.9% saline is added to the control group to substitute for the peptide 234 solution. In detail, spermatozoa (1×10^6 cell per milliliter) are incubated in a capacitation-condition medium with 50 μM peptide 234 or saline at 37° C. for 2 hours. Then, the fertilization process begins with the introduction of cumulus-oocyte complexes (COCs) into the culture medium and incubation at 37° C. for 6 hours. The oocytes are washed thrice and incubated in KSOM+AAs culture medium (potassium simplex optimized medium plus amino acids, Merk Millipore) for 24 hours. The success fertilization rate is calculated according to the ratio of the number of two-cell embryos to the total number of oocytes. […]

kisspeptin 10: short-chain peptide kisspeptin-10 (SEQ ID NO:6), rodent expressed kisspeptin, purchased from Kelowna international Scientific (YNWNSFGLRY; Rodent expressed kisspeptin-10)
[Ca2+]i increases by (change in fluorescent intensity, (F'-F0)/F0) (mouse spermatozoa; mouse spermatozoa treated with 50 μM): 85.5±14.4% | [Ca2+]i increases by (change in fluorescent intensity, (F'-F0)/F0) (mouse spermatozoa; mouse spermatozoa treated with 100 μM): 129.9±24.9% | [Ca2+]i change (fluorescent intensity), in words (mouse spermatozoa; mouse spermatozoa treated with 25, 50 and 100 μM): increases

peptide 234: kisspeptin antagonist peptide 234 (SEQ ID NO:10), binds to KISS1R on the spermatozoa (ANWNGFGWRF; Kisspeptin antagonist peptide 234)
success fertilization rate (two-cell embryos / total oocytes) (spermatozoa): less than 60%
